The text below walks through data of patent US20230017045A1, “PYRIDINE AND PYRIMIDINE CARBOXYLATE HERBICIDES AND METHODS OF USE THEREOF” (Dow AgroSciences LLC, priority 2017, published 2023).

Where two headings read alike, the source gives them in different places.

The test system of the experiment is test plant species. As to the kind of experiment: Post-emergent herbicidal activity test (greenhouse, foliar spray, visual growth reduction). The note with it: post-emergence, 336 h, 140 g ai/ha. The class given is in vivo. The method in brief:
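Plants grown in greenhouse (15 h photoperiod, 23-29° C day/22-28° C night) to first or second true leaf stage were sprayed overhead with compound in acetone/water/isopropanol/DMSO/crop oil/X-77 carrier at 187 L/ha. Injury was scored visually after 14 d on a 0-100% scale versus solvent-blank and untreated controls.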

The mark [1] stands for this setting: ECHCG: barnyardgrass (Echinochloa crus-galli), 14 days after application, read-out: Visual Growth Reduction (%) 14 Days After Application, ECHCG.
Setting [2] is: IPOHE: ivy-leaf morning glory (Ipomoea hederacea), 14 days after application, read-out: Visual Growth Reduction (%) 14 Days After Application, IPOHE.
[3] abbreviates: KCHSC: kochia (Bassia scoparia), 14 days after application, read-out: Visual Growth Reduction (%) 14 Days After Application, KCHSC.
[4] abbreviates: ORYSA: rice (Oryza sativa), 14 days after application, read-out: Visual Growth Reduction (%) 14 Days After Application, ORYSA.
Where [5] appears, read: SETFA: giant foxtail (Setaria faberi), 14 days after application, read-out: Visual Growth Reduction (%) 14 Days After Application, SETFA.
Setting [6] is: SORVU: grain sorghum (Sorghum vulgare), 14 days after application, read-out: Visual Growth Reduction (%) 14 Days After Application, SORVU.
Where [7] appears, read: STEME: common chickweed (Stellaria media), 14 days after application, read-out: Visual Growth Reduction (%) 14 Days After Application, STEME.
[8] abbreviates: TRZAS: wheat, spring (Triticum aestivum), 14 days after application, read-out: Visual Growth Reduction (%) 14 Days After Application, TRZAS.
[9] abbreviates: blackgrass (Alopecurus myosuroides), 14 Days After Application, read-out: Visual Growth Reduction (%) ALOMY.
[10] abbreviates: canada thistle (Cirsium arvense), 14 Days After Application, read-out: Visual Growth Reduction (%) CIRAR.
The mark [11] stands for this setting: crabgrass (Digitaria sanguinalis), 14 Days After Application, read-out: Visual Growth Reduction (%) DIGSA.
The mark [12] stands for this setting: lambsquarters (Chenopodium album), 14 Days After Application, read-out: Visual Growth Reduction (%) CHEAL.
[13] abbreviates: redroot pigweed (Amaranthus retroflexus), 14 Days After Application, read-out: Visual Growth Reduction (%) AMARE.
[14] abbreviates: wild oat (Avena fatua), 14 Days After Application, read-out: Visual Growth Reduction (%) AVEFA.
Where [15] appears, read: yellow nutsedge (Cyperus esculentus), 14 Days After Application, read-out: Visual Growth Reduction (%) CYPES.

With `COC(=O)c1nc(-c2ccc(C(F)(F)F)c(N)c2Cl)ccc1Cl` [F212, Methyl 6-(3-amino-2-chloro-4-(trifluoromethyl)phenyl)-3-chloropicolinate], the pest or weed control at 140 g/ha is, setting by setting: under setting [1], 75 to 84%; under setting [2], 95 to 100%; under setting [3], 60 to 74%; under setting [4], 0 to 29%; under setting [5], 60 to 74%; under setting [6], 60 to 74%. The pest or weed control at 140 g/ha was 0 to 29% under setting [7]; 0 to 29% under setting [8]; 0 to 29% under setting [9]; 85 to 94% under setting [10]; 30 to 44% under setting [11]; 95 to 100% under setting [12]. Moreover, the pest or weed control at 140 g/ha was in the range of 60 to 74% under setting [13], 0 to 29% under setting [14] and 0 to 29% under setting [15].
Consider `COC(=O)c1nc(-c2c(N)cc(C(F)(F)F)cc2Cl)ccc1Cl` [F213, Methyl 6-(2-amino-6-chloro-4-(trifluoromethyl)phenyl)-3-chloropicolinate], for which the pest or weed control at 140 g/ha under setting [1] lay within 0 to 29%; the pest or weed control at 140 g/ha under setting [2] lay within 95 to 100%; the pest or weed control at 140 g/ha under setting [3] is 60 to 74%; the pest or weed control at 140 g/ha under setting [4] was in the range of 0 to 29%; the pest or weed control at 140 g/ha under setting [5] was 30 to 44%; the pest or weed control at 140 g/ha under setting [6] fell in the range of 60 to 74%. Moreover, the pest or weed control at 140 g/ha runs as follows: under setting [7], 0 to 29%; under setting [8], 0 to 29%; under setting [9], 0 to 29%; under setting [10], 0 to 29%; under setting [11], 30 to 44%; under setting [12], 85 to 94%. Further, the pest or weed control at 140 g/ha runs as follows: under setting [13], 45 to 59%; under setting [14], 0 to 29%; under setting [15], 0 to 29%.
`COC(=O)c1nc(-c2c(Cl)cc(C(F)(F)F)cc2I)ccc1Cl` [F214, methyl 3-chloro-6-(2-chloro-6-iodo-4-(trifluoromethyl)phenyl)picolinate]: the pest or weed control at 140 g/ha reads like this: under setting [1], 0 to 29%; under setting [2], 95 to 100%; under setting [3], 75 to 84%; under setting [4], 0 to 29%; under setting [5], 75 to 84%; under setting [6], 85 to 94%. For the same compound, the pest or weed control at 140 g/ha under setting [7] was 30 to 44%; the pest or weed control at 140 g/ha under setting [8] lay within 75 to 84%; the pest or weed control at 140 g/ha under setting [9] lay in the range of 45 to 59%; the pest or weed control at 140 g/ha under setting [10] fell in the range of 85 to 94%; the pest or weed control at 140 g/ha under setting [11] was in the range of 95 to 100%; the pest or weed control at 140 g/ha under setting [12] was in the range of 95 to 100%. Moreover, the pest or weed control at 140 g/ha was 75 to 84% under setting [13], 60 to 74% under setting [14] and 0 to 29% under setting [15].
Regarding `COC(=O)c1nc(-c2ccc(OC(F)(F)F)cc2OC)c(F)cc1Cl` [F215, Methyl 3-chloro-5-fluoro-6-(2-methoxy-4-(trifluoromethoxy)phenyl)picolinate], the pest or weed control at 140 g/ha reads like this: under setting [1], 85 to 94%; under setting [2], 95 to 100%; under setting [3], 75 to 84%; under setting [4], 0 to 29%; under setting [5], 95 to 100%; under setting [6], 95 to 100%. In addition, the pest or weed control at 140 g/ha is 30 to 44% under setting [7]; 45 to 59% under setting [8]; 0 to 29% under setting [9]; 85 to 94% under setting [10]; 45 to 59% under setting [11]; 85 to 94% under setting [12]. The pest or weed control at 140 g/ha lay within 85 to 94% under setting [13], 60 to 74% under setting [14] and 0 to 29% under setting [15].
On to `C=Cc1cc(C(F)(F)F)cc(Cl)c1-c1ccc(Cl)c(C(=O)OC)n1` [F216, methyl 3-chloro-6-(2-chloro-4-(trifluoromethyl)-6-vinylphenyl)picolinate], for which the pest or weed control at 140 g/ha was in the range of 0 to 29% under setting [1]; 95 to 100% under setting [2]; 30 to 44% under setting [3]; 0 to 29% under setting [4]; 60 to 74% under setting [5]; 60 to 74% under setting [6]. The pest or weed control at 140 g/ha reads like this: under setting [7], 0 to 29%; under setting [8], 45 to 59%; under setting [9], 0 to 29%; under setting [10], 60 to 74%; under setting [11], 0 to 29%; under setting [12], 95 to 100%. Moreover, the pest or weed control at 140 g/ha under setting [13] was 30 to 44%, the pest or weed control at 140 g/ha under setting [14] lay in the range of 0 to 29% and the pest or weed control at 140 g/ha under setting [15] lay within 0 to 29%.
With `COC(=O)c1nc(-c2ccc(C(F)(F)F)c(N)c2)ccc1Cl` [F218, methyl 6-(3-amino-4-(trifluoromethyl)phenyl)-3-chloropicolinate], the pest or weed control at 140 g/ha lay in the range of 0 to 29% under setting [1]; 0 to 29% under setting [2]; 0 to 29% under setting [3]; 0 to 29% under setting [4]; 0 to 29% under setting [5]; 0 to 29% under setting [6]. Moreover, the pest or weed control at 140 g/ha lay in the range of 0 to 29% under setting [7]; 0 to 29% under setting [8]; 0 to 29% under setting [9]; 30 to 44% under setting [10]; 0 to 29% under setting [11]; 60 to 74% under setting [12]. In addition, the pest or weed control at 140 g/ha by setting is: under setting [13], 0 to 29%; under setting [14], 0 to 29%; under setting [15], 0 to 29%.
As to `COC(=O)c1nc(-c2ccccc2)c(F)cc1Cl` [F219, Methyl 3-chloro-5-fluoro-6-phenylpicolinate], the pest or weed control at 140 g/ha fell in the range of 0 to 29% under setting [1]; 45 to 59% under setting [2]; 0 to 29% under setting [3]; 0 to 29% under setting [4]; 0 to 29% under setting [5]; 60 to 74% under setting [6]. For the same compound, the pest or weed control at 140 g/ha is, setting by setting: under setting [7], 0 to 29%; under setting [8], 0 to 29%; under setting [9], 0 to 29%; under setting [10], 0 to 29%; under setting [11], 30 to 44%; under setting [12], 45 to 59%. The pest or weed control at 140 g/ha runs as follows: under setting [13], 0 to 29%; under setting [14], 0 to 29%; under setting [15], 0 to 29%.
Turning to `COC(=O)c1nc(-c2ccc(OC(F)F)cc2F)c(F)cc1Cl` [F221, Methyl 3-chloro-6-(4-(difluoromethoxy)-2-fluorophenyl)-5-fluoropicolinate], the pest or weed control at 140 g/ha by setting is: under setting [1], 85 to 94%; under setting [2], 95 to 100%; under setting [3], 85 to 94%; under setting [4], 0 to 29%; under setting [5], 85 to 94%; under setting [6], 95 to 100%. For the same compound, the pest or weed control at 140 g/ha is, setting by setting: under setting [7], 0 to 29%; under setting [8], 75 to 84%; under setting [9], 75 to 84%; under setting [10], 95 to 100%; under setting [11], 95 to 100%; under setting [12], 95 to 100%. For the same compound, the pest or weed control at 140 g/ha under setting [13] is 95 to 100%, the pest or weed control at 140 g/ha under setting [14] is 75 to 84% and the pest or weed control at 140 g/ha under setting [15] was 75 to 84%.
For the compound `C=Cc1cc(C(F)(F)F)cc(Cl)c1-c1ccc(Cl)c(C(=O)O)n1` [F222, 3-Chloro-6-(2-chloro-4-(trifluoromethyl)-6-vinylphenyl) picolinic acid], the pest or weed control at 140 g/ha was in the range of 60 to 74% under setting [1]; 95 to 100% under setting [2]; 45 to 59% under setting [3]; 0 to 29% under setting [4]; 30 to 44% under setting [5]; 75 to 84% under setting [6]. Also, the pest or weed control at 140 g/ha fell in the range of 0 to 29% under setting [7]; 45 to 59% under setting [8]; 0 to 29% under setting [9]; 85 to 94% under setting [10]; 75 to 84% under setting [11]; 75 to 84% under setting [12]. For the same compound, the pest or weed control at 140 g/ha reads like this: under setting [13], 75 to 84%; under setting [14], 0 to 29%; under setting [15], 0 to 29%.
